Test results from patent US8067424B2, “Selective inhibitors for cyclin-dependent kinases” (Emory University, priority 2007, dated 2011).
Where two headings read alike, the source gives them in different places.

Assays:
RPMI-8226 = experiment: cells; conditions: Homo sapiens
SK-MEL-2 = experiment: cells; conditions: Homo sapiens
LOX IMVI = experiment: cells; conditions: Homo sapiens
A549/ATCC = conditions: for Mean Optical Densities / Percent Growth: A549/ATCC
SK-OV-3 [1] = test system: SK-OV-3
NCI/ADR-RES = experiment: cells; conditions: Homo sapiens
SK-OV-3 [2] = experiment: cells; conditions: Homo sapiens
CAMKKα = CAMKKα (Homo sapiens, UniProt Q8N5S9); experiment: Kinase screen: CAMKKa assay; assay type: biochemical; conditions: read-out: Mean Remaining Enzyme Activity (%)
Experimental: (§1) Generally, the same procedure was used for all assays. Since the total assay volume was 25.5 microliters, 0.5 microliters of inhibitors at 51× assay concentration were added to the plates before any other addition.
(§2) The basic procedure was to add 0.5 microliters inhibitor/control in DMSO to plate. Fifteen microliters of enzyme/substrate/buffer mix were added and incubated for 5 min. Ten microliters MgATP at the relevant concentration were added and incubated for 30 min. The assay was stopped by adding 5 microliters of 3% orthophosphoric acid. The assay was transferred to a p81 filter plate and read in a scintillation counter of 30 sec/well. Note that this assay procedure was not followed for MKK1, which instead involved a two-step assay, and PKC alpha, which required the addition of lipid vesicles.
CAMKKa assay: 5-20 mU of CAMKKa (diluted in 50 mM Tris (pH 7.5), 0.1 mM EGTA, 1 mg/ml BSA, 0.1%, b-Mercaptoethanol) was assayed against substrate peptide ([…]) (SEQ ID NO: 31) in a final volume of 25.5 μl containing 50 mM Tris (pH 7.5), 0.1 mM EGTA, 0.5 mM CaCl2, 0.3 μM calmodulin, 0.1%, b-Mercaptoethanol, 300 μM substrate peptide, 10 mM magnesium acetate and 0.02 mM [33P-g-ATP] (500-1000 cpm/pmole) and incubated for 30 mins at room temperature. Assays were stopped by addition of 5 μl of 0.5M (3%) orthophosphoric acid. […]

HIPK3 = HIPK3 (Homo sapiens, UniProt Q9H422); experiment: Kinase screen: HIPK3 assay; assay type: biochemical; conditions: read-out: Mean Remaining Enzyme Activity (%)
Sequence of HIPK3 (Q9H422 whole entry, species assumed): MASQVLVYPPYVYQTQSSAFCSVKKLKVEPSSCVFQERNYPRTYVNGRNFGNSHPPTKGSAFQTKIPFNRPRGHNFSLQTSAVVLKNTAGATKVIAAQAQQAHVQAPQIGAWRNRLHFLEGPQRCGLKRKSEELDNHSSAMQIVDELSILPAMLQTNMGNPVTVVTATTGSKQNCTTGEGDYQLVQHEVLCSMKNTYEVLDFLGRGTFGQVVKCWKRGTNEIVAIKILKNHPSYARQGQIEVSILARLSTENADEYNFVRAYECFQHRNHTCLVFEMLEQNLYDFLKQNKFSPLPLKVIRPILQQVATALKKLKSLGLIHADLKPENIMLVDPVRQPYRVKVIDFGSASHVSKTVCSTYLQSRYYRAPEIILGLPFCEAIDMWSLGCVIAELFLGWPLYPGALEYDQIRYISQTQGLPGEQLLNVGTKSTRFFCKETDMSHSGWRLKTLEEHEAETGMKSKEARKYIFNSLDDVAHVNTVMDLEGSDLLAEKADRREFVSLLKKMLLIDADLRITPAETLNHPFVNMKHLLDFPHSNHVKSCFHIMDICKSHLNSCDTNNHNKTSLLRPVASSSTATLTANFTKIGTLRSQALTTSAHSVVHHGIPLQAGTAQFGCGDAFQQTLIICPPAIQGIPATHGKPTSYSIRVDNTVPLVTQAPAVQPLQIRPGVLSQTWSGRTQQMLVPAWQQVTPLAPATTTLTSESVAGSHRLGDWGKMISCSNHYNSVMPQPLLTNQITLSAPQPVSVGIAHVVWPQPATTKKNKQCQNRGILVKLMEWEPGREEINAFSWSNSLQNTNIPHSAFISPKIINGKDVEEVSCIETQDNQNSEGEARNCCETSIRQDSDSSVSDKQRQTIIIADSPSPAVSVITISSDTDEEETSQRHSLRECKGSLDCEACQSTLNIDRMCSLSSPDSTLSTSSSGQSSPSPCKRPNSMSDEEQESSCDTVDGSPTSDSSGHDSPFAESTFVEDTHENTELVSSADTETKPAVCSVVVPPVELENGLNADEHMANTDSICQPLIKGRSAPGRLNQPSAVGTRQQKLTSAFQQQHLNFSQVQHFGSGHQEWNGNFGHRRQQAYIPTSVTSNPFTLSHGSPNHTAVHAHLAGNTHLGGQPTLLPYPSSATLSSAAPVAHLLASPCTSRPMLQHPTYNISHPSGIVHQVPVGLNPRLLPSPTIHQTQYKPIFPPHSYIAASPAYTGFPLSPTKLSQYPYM
Experimental: as §1, §2
HIPK3 assay: 5-20 mU of HIPK3 (diluted in 50 mM Tris (pH 7.5), 0.1 mM EGTA, 1 mg/ml BSA, 0.1%, b-Mercaptoethanol) was assayed against MBP in a final volume of 25.5 μl containing 50 mM Tris (pH 7.5), 0.1 mM EGTA, 0.1%, b-Mercaptoethanol, 0.33 mg/ml MBP, 10 mM magnesium acetate and 0.02 mM [33P-g-ATP] (500-1000 cpm/pmole) and incubated for 30 mins at room temperature. Assays were stopped by addition of 5 μl of 0.5M (3%) orthophosphoric acid. Assays were harvested onto P81 Unifilter plates using a wash buffer of 50 mM orthophosphoric acid.

[3] = BT-549, log10 concentration −4.0
[4] = BT-549, log10 concentration −5.0
[5] = BT-549, log10 concentration −6.0
[6] = BT-549, log10 concentration −7.0
[7] = BT-549, log10 concentration −8.0
[8] = HCT-116, log10 concentration −4.0
[9] = HCT-116, log10 concentration −5.0
[10] = HCT-116, log10 concentration −6.0
[11] = HCT-116, log10 concentration −7.0
[12] = HCT-116, log10 concentration −8.0
[13] = SK-OV-3, log10 concentration −4.0
[14] = SK-OV-3, log10 concentration −5.0
[15] = SK-OV-3, log10 concentration −6.0
[16] = SK-OV-3, log10 concentration −7.0
[17] = SK-OV-3, log10 concentration −8.0
[18] = SF-295, log10 concentration −4.0
[19] = SF-295, log10 concentration −5.0
[20] = SF-295, log10 concentration −6.0
[21] = SF-295, log10 concentration −7.0
[22] = SF-295, log10 concentration −8.0

CC(C)c1cnn2c(NCc3ccccc3)cc(N[C@@H](CO)[C@H](O)CO)nc12 [ICEC0318, (3S)-3-(7-(Benzylamino)-3-isopropylpyrazolo[1,5-a]pyrimidin-5-ylamino)butane-1,2,4-triol]
GI50 (RPMI-8226; RPMI-8226): 227 nM
CC50 (RPMI-8226; RPMI-8226, read-out: LC50): > 100000 nM
GI50 (SK-MEL-2; SK-MEL-2): 404 nM
CC50 (SK-MEL-2; SK-MEL-2, read-out: LC50): > 100000 nM
TGI (MCF7; MCF7 (Breast Cancer)): >1.00E−4
Mean Optical Densities (MCF7; MCF7, log10 concentration −4.0): 0.229
Percent Growth (MCF7; MCF7, log10 concentration −4.0): 6%
Mean Optical Densities (MCF7; MCF7, log10 concentration −5.0): 0.237
Percent Growth (MCF7; MCF7, log10 concentration −5.0): 7%
Mean Optical Densities (MCF7; MCF7, log10 concentration −6.0): 0.244
Percent Growth (MCF7; MCF7, log10 concentration −6.0): 7%
Mean Optical Densities (MCF7; MCF7, log10 concentration −7.0): 0.805
Percent Growth (MCF7; MCF7, log10 concentration −7.0): 72%
Mean Optical Densities (MCF7; MCF7, log10 concentration −8.0): 1.098
Percent Growth (MCF7; MCF7, log10 concentration −8.0): 107%
TGI (BT-549; BT-549 (Breast Cancer)): 8.82E−7
Mean Optical Densities (BT-549; [3]): 0.803
Percent Growth (BT-549; [3]): −10%
Mean Optical Densities (BT-549; [4]): 0.805
Percent Growth (BT-549; [4]): −9%
Mean Optical Densities (BT-549; [5]): 0.843
Percent Growth (BT-549; [5]): −5%
Mean Optical Densities (BT-549; [6]): 1.769
Percent Growth (BT-549; [6]): 88%
Mean Optical Densities (BT-549; [7]): 1.968
Percent Growth (BT-549; [7]): 108%
TGI (PC-3; PC-3 (Prostate Cancer)): >1.00E−4
Mean Optical Densities (PC-3; PC-3, log10 concentration −4.0): 0.173
Percent Growth (PC-3; PC-3, log10 concentration −4.0): 2%
Mean Optical Densities (PC-3; PC-3, log10 concentration −5.0): 0.200
Percent Growth (PC-3; PC-3, log10 concentration −5.0): 9%
Mean Optical Densities (PC-3; PC-3, log10 concentration −6.0): 0.218
Percent Growth (PC-3; PC-3, log10 concentration −6.0): 14%
Mean Optical Densities (PC-3; PC-3, log10 concentration −7.0): 0.486
Percent Growth (PC-3; PC-3, log10 concentration −7.0): 85%
Mean Optical Densities (PC-3; PC-3, log10 concentration −8.0): 0.532
Percent Growth (PC-3; PC-3, log10 concentration −8.0): 97%
GI50 (LOX IMVI): 171 nM
CC50 (LOX IMVI; read-out: LC50): > 100000 nM
TGI (A549/ATCC; A549/ATCC (Non-Small Cell Lung Cancer)): >1.00E−4
Mean Optical Densities (A549/ATCC; log10 concentration −4.0): 0.346
Percent Growth (A549/ATCC; log10 concentration −4.0): 4%
Mean Optical Densities (A549/ATCC; log10 concentration −5.0): 0.417
Percent Growth (A549/ATCC; log10 concentration −5.0): 10%
Mean Optical Densities (A549/ATCC; log10 concentration −6.0): 0.422
Percent Growth (A549/ATCC; log10 concentration −6.0): 11%
Mean Optical Densities (A549/ATCC; log10 concentration −7.0): 1.369
Percent Growth (A549/ATCC; log10 concentration −7.0): 94%
Mean Optical Densities (A549/ATCC; log10 concentration −8.0): 1.447
Percent Growth (A549/ATCC; log10 concentration −8.0): 101%
TGI (HCT-116; HCT-116 (Colon Cancer)): >1.00E−4
Mean Optical Densities (HCT-116; [8]): 0.170
Percent Growth (HCT-116; [8]): 1%
Mean Optical Densities (HCT-116; [9]): 0.179
Percent Growth (HCT-116; [9]): 2%
Mean Optical Densities (HCT-116; [10]): 0.182
Percent Growth (HCT-116; [10]): 2%
Mean Optical Densities (HCT-116; [11]): 0.749
Percent Growth (HCT-116; [11]): 62%
Mean Optical Densities (HCT-116; [12]): 1.058
Percent Growth (HCT-116; [12]): 95%
TGI (SK-OV-3 [1]; SK-OV-3 (Ovarian Cancer)): >1.00E−4
Mean Optical Densities (SK-OV-3 [1]; [13]): 0.799
Percent Growth (SK-OV-3 [1]; [13]): 9%
Mean Optical Densities (SK-OV-3 [1]; [14]): 0.860
Percent Growth (SK-OV-3 [1]; [14]): 17%
Mean Optical Densities (SK-OV-3 [1]; [15]): 0.903
Percent Growth (SK-OV-3 [1]; [15]): 23%
Mean Optical Densities (SK-OV-3 [1]; [16]): 1.701
Percent Growth (SK-OV-3 [1]; [16]): 132%
Mean Optical Densities (SK-OV-3 [1]; [17]): 1.504
Percent Growth (SK-OV-3 [1]; [17]): 105%
GI50 (NCI/ADR-RES): 2040 nM
CC50 (NCI/ADR-RES; read-out: LC50): > 100000 nM
GI50 (SK-OV-3 [2]; SK-OV-3): 565 nM
CC50 (SK-OV-3 [2]; SK-OV-3, read-out: LC50): > 100000 nM
TGI (SF-295; SF-295 (CNS Cancer)): 3.10E−5
Mean Optical Densities (SF-295; [18]): 0.371
Percent Growth (SF-295; [18]): −4%
Mean Optical Densities (SF-295; [19]): 0.427
Percent Growth (SF-295; [19]): 4%
Mean Optical Densities (SF-295; [20]): 0.447
Percent Growth (SF-295; [20]): 6%
Mean Optical Densities (SF-295; [21]): 1.288
Percent Growth (SF-295; [21]): 83%
Mean Optical Densities (SF-295; [22]): 1.492
Percent Growth (SF-295; [22]): 101%

CC(C)c1cnn2c(NCc3ccccc3)cc(NCCCCCCCN)nc12 [BS-181]
remaining activity at 10 µM (CAMKKα): 57%
remaining activity at 10 µM (HIPK3): 90%
